Results as given in paper PMC6274259, “New 3-Cyano-2-Substituted Pyridines Induce Apoptosis in MCF 7 Breast Cancer Cells” (Molecules, 2016).

Tests used:
[1] = test system: MDA-MB-231 human breast adenocarcinoma cell line; assay: WST-1 cell viability assay, MDA-MB-231; format: cell-based; settings: Homo sapiens, MDA-MB-231; WST-1, 24 h treatment, mean ± S.D of three independent experiments
Excerpt: (§1) The synthesized compounds were screened for their cytotoxicity on five cancer cell lines, namely SK-OV-3, MCF-7, MDA-MB-231, HCT-116 and RKO, using a WST colorimetric assay. The assay principle is based upon the reduction of the tetrazolium salt WST-1 to formazan by cellular mitochondrial dehydrogenases present in viable cells. […] Among the latter compounds the benzohydrazide derivative 9a emerged with the lowest IC50 in this study against MCF-7 cells compared to 5-FU. […] Based on the fact that 9a had less cytotoxic effects on normal breast epithelial cells it was subjected to further studies.
(§2) The following cell lines were used for the screening stage, obtained from the American Type Culture Collection (ATCC, Manassas, VA, USA); SK-OV-3 (HTB-77), MCF-12A (ATCC CRL-10782), MDA-MB-231 (ATCC HTB-26), HCT-116 (CCL-247), RKO (CRL-2577) and sub-culturing of the above cell lines was conducted in 75 cm^2 flasks. The old culture media was removed and discarded after assessing the confluency of the cells and the cells were rinsed with 2–3 mL diluted trypsin (1×) (trypsin/EDTA solution consists of 0.025% trypsin and 0.01% EDTA in PBS), for about 5 minutes for complete detachment. The cells were observed under the inverted microscope until the cell layer is completely dispersed. 75 cm^2 flasks were prepared and 16 mL of DMEM media for SK-OV-3, MCF-7, MDA-MB-231, (DMEM 4500 mg glucose) and RPMI media for HCT-116 were added to each flask. The cells were aspirated gently and added to the flasks. DMEM 4500 mg/L high glucose with 10% FBS, 5% streptomycin and penicillin, RPMI 1640 (prepared by adding 5% heat-inactivated FCS and 2 mm glutamine) were used. DMEM was also used for MCF-12A cells with the addition of human epidermal growth factor 20 ng/mL, insulin 0.01 mg/mL and hydrocortisone 500 ng/mL.
(§3) The synthesized compounds were screened for their anti-proliferative activity using 5-FU (F6627-1G, Sigma-Aldrich, St. Louis, MO, USA) as reference compound. A concentration of 0.4% DMSO was used in all experiment after ensuring 100% viability of the cell lines with this concentration. A 25 mM stock concentration of all compounds was prepared for further studies and analysis.
(§4) Cells were trypsinized and placed in a 15 mL Falcon tube, the cells were centrifuged for 3 min at 1000 rpm. Trypsin is decanted using a sterile pipette and then the pellet is loosened by flicking the tube few times then 5–10 mL warm DMEM or RPMI were added to the Falcon tube and the pellet is resuspended. Cell count was done next by taking 10 μL of the suspension into the cell counting slide and read under 10× cells/mL. A cell stock of 50,000 cells/mL was prepared for the 96 wells. Cells (100 μL) were added to each well using a sterile pipette each time to ensure consistency. The experiment was planned ahead of time using excel sheet, 3–6 wells were reserved as blank media while 3–6 wells for vehicle (DMSO). The plate was incubated for 24 h for compound treatment step. DMEM media was used to prepare different dilutions of the compounds. The old DMEM media was removed from the wells using sterile pipette in the hood and the media was replaced with 100 μL media with each compound. The plate was incubated for 24 h. After 24 h incubation, WST-1 reagent (Sigma) was added to each well and then the plate was incubated for 1 h before measuring the absorbance using VICTOR™ Multilabel Plate Reader (Perkin Elmer, Beaconsfield, UK). The absorbance of the colored solution can be quantified by measuring at a certain wavelength (usually between 500–600 nm), in this experiment the first reading was conducted at 540 nm and the second reading at 690 nm for the reference wavelength. The percentage of cell viability was determined as the ratio of the absorbance of the sample vs the control. Three independent experiments were performed. […] 5-Florouracil (Sigma-Aldrich, F6627-1G) was used as reference standard.

MCF-7 cells = assay: Morphological examination of MCF-7 cells; format: cell-based, human; settings: 24 h
Experimental: The morphological changes in MCF-7 cells were followed up after treatment with different concentrations of compound 9a (0.05, 0.1, 0.5, 2, 5 and 10 μM) for 24 h. […] Untreated cells were used as a negative control.
Morphological examination was performed as described previously; MCF-7 cells were plated on 96 well plates using 5 × 10^4 cells/well and allowed to reach 75%–85% confluence. The compounds were added to the medium, untreated cells were used as negative control, in addition to blank cells (medium) and vehicle which consist of (DMSO 0.4% + cells). After treatment, all the cells were incubated for 24 h in an atmosphere containing 5% CO2. After […] of treatment, the morphological changes of the cells were examined and photographs were taken using an inverted microscope at 400× magnification.

[2] = test system: RKO human colon carcinoma cell line; assay: WST-1 cell viability assay, RKO; format: cell-based; settings: Homo sapiens, Colon carcinoma cell; WST-1, 24 h treatment, mean ± S.D of three independent experiments
Excerpt: as §1, §2, §3, §4

[3] = test system: HCT-116 human colon carcinoma cell line; assay: WST-1 cell viability assay, HCT-116; format: cell-based; settings: Homo sapiens, HCT-116; WST-1, 24 h treatment, mean ± S.D of three independent experiments
Excerpt: as §1, §2, §3, §4

[4] = test system: MCF-12a normal breast epithelial cells; assay: WST-1 cell viability assay, MCF-12a normal cells; format: cell-based, human; settings: Homo sapiens, MCF-12A
Excerpt: as §1, with “studies. […]” for “studies.”
(§5) Cells were trypsinized and placed in a 15 mL Falcon tube, the cells were centrifuged for 3 min at 1000 rpm. […] Cell count was done next by taking 10 μL of the suspension into the cell counting slide and read under 10× cells/mL. […] After 24 h incubation, WST-1 reagent (Sigma) was added to each well and then the plate was incubated for 1 h before measuring the absorbance using VICTOR™ Multilabel Plate Reader (Perkin Elmer, Beaconsfield, UK). The absorbance of the colored solution can be quantified by measuring at a certain wavelength (usually between 500–600 nm), in this experiment the first reading was conducted at 540 nm and the second reading at 690 nm for the reference wavelength. The percentage of cell viability was determined as the ratio of the absorbance of the sample vs the control. […]

[5] = WST-1 cell viability assay, MCF-12a normal cells; format: cell-based, human; settings: human, MCF-12a normal breast epithelial cells, 2 μM, 24 h
Excerpt: as §1, with “studies. […]” for “studies.”
as §5

Question: For `COc1ccc(-c2cc(-c3ccc(OC)c(OC)c3)c(C#N)c(OCC(=O)NNC(=O)c3ccccc3)n2)cc1OC` [Compound 9a, N'-[2-(3-cyano-4,6-bis(3,4-dimethoxyphenyl)pyridin-2-yloxy)acetyl]benzohydrazide], which IC50 [1] is on record?
Answer: 22.3 ± 0.88 µM

Question: And the morphological changes (MCF-7 cells; 0.05, 0.1 and 0.5 μM)?
Answer: no morphological changes were observed

Question: And the morphological changes (MCF-7 cells; 2, 5 and 10 μM)?
Answer: apoptotic features were observed

Question: What about the IC50 [2] of the same compound?
Answer: 8.22 ± 0.99 µM

Question: And the IC50 [3]?
Answer: 7.12 ± 0.37 µM

Question: And the IC50 [4]?
Answer: 7.5 ± 0.25 µM

Question: What about the viability at 24 h, 2 µM [5] of the same compound?
Answer: ~74%
